Laboratory results as given in ChEMBL document CHEMBL5696441 (Nat Chem Biol, 2011).

Legend:
[1] = target: Cyclin-dependent kinase 8 (Homo sapiens) (UniProt P49336); experiment: Inhibition of CDK8 (unknown origin) assessed as remaining activity at 1 uM by Kinome scan method relative to control
[2] = target: Homeodomain-interacting protein kinase 2 (Homo sapiens) (UniProt Q9H2X6); experiment: Inhibition of HIPK2 (unknown origin) assessed as remaining activity at 1 uM by Kinome scan method relative to control
[3] = target: Phosphatidylinositol 4-phosphate 3-kinase C2 domain-containing subunit beta (Homo sapiens) (UniProt O00750); experiment: Inhibition of PIK3C2B (unknown origin) assessed as remaining activity at 1 uM by Kinome scan method relative to control
[4] = system: Phosphatidylinositol 4,5-bisphosphate 3-kinase catalytic subunit alpha isoform (Homo sapiens), P42336 [E542K]; experiment: Inhibition of PIK3CA E542K mutant (unknown origin) assessed as remaining activity at 1 uM by Kinome scan method relative to control
Phosphatidylinositol 4,5-bisphosphate 3-kinase catalytic subunit alpha isoform (Homo sapiens), P42336 [E542K], sequence (P42336 whole entry E542K, canonical isoform): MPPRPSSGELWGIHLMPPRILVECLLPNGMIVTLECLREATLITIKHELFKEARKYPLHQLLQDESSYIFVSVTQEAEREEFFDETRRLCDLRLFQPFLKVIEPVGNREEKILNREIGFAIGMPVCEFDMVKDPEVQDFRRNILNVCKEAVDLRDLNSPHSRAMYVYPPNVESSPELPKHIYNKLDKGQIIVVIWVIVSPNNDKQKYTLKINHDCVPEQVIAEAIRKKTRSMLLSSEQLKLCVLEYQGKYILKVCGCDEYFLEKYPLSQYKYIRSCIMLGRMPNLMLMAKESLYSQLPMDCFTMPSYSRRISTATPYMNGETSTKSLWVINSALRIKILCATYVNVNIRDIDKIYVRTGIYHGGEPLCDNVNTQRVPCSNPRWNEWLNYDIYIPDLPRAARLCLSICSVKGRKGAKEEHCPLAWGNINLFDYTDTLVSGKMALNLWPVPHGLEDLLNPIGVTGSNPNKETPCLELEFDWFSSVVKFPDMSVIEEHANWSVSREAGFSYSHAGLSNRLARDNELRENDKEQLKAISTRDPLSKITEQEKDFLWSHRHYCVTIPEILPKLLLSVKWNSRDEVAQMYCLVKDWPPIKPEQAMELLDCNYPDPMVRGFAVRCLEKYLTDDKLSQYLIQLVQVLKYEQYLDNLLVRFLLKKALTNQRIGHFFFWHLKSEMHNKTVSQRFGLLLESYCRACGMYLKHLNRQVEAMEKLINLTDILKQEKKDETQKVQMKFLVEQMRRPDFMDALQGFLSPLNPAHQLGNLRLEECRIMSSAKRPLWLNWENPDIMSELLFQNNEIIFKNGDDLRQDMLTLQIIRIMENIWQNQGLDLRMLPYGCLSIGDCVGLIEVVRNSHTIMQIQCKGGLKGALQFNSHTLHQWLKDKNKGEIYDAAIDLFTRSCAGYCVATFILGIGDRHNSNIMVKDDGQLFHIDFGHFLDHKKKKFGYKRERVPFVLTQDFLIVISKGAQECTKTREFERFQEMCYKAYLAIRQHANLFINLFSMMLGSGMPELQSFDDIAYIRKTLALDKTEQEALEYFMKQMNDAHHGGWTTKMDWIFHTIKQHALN

[5] = target: Protein kinase C theta type (Homo sapiens) (UniProt Q04759); experiment: Inhibition of PRKCQ (unknown origin) assessed as remaining activity at 1 uM by Kinome scan method relative to control
Protein kinase C theta type (Homo sapiens), sequence (Q04759 whole entry, looked up): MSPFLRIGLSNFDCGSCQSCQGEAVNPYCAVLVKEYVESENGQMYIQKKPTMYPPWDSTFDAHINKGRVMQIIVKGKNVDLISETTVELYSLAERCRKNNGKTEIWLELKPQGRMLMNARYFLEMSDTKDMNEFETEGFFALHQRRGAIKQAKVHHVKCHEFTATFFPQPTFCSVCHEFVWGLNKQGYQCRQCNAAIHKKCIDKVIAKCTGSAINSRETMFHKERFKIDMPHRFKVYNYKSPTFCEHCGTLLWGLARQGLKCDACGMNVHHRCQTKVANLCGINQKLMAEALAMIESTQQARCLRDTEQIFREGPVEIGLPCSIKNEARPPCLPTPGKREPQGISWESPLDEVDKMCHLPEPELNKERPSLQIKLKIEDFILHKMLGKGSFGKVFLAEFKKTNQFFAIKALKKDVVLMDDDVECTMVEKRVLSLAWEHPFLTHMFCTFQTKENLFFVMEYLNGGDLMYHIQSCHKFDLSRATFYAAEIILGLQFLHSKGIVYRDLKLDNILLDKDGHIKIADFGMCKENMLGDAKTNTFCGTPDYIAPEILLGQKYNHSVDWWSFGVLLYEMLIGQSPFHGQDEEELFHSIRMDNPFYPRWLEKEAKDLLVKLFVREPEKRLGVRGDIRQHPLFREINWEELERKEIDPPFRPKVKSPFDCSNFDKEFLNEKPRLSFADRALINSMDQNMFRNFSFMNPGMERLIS

[6] = target: RAC-gamma serine/threonine-protein kinase (Homo sapiens) (UniProt Q9Y243); experiment: Inhibition of human AKT3 assessed as residual activity at 1 uM using RBER-GSK3(14-27) as substrate in presence of 33P-ATP by ProQinase assay relative to control
RAC-gamma serine/threonine-protein kinase (Homo sapiens), sequence (Q9Y243 whole entry): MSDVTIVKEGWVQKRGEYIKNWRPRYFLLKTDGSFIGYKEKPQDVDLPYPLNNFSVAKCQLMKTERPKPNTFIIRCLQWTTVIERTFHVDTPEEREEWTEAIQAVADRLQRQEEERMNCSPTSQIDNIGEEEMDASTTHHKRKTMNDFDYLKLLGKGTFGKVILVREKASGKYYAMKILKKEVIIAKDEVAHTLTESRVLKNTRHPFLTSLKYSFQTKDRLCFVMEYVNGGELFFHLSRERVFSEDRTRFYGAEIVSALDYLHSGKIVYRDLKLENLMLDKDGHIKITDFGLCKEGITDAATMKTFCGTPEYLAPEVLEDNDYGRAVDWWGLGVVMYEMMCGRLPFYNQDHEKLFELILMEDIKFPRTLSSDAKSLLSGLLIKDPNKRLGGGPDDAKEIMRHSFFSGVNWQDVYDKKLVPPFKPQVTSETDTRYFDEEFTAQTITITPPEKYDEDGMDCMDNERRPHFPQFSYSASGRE

[7] = target: Dual specificity protein kinase CLK1 (Homo sapiens) (UniProt P49759); experiment: Inhibition of human CLK1 assessed as residual activity at 1 uM using autophos as substrate in presence of 33P-ATP by ProQinase assay relative to control
Dual specificity protein kinase CLK1 (Homo sapiens), sequence (P49759 whole entry, looked up): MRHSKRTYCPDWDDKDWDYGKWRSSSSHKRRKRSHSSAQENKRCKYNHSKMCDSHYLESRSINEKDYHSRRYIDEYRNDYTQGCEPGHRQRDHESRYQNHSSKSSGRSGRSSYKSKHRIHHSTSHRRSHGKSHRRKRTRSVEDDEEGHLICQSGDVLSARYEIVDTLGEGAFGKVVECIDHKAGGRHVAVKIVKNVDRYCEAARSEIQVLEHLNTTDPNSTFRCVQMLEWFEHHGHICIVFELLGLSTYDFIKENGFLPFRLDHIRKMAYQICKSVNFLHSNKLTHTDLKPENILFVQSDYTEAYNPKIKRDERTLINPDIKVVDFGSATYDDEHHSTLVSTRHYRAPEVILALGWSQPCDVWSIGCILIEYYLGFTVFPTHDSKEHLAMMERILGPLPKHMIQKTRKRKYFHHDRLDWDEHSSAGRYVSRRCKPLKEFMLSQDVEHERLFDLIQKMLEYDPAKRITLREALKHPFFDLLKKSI

[8] = target: Dual specificity tyrosine-phosphorylation-regulated kinase 1B (Homo sapiens) (UniProt Q9Y463); experiment: Inhibition of human DYRK1B assessed as residual activity at 1 uM using RBER-CHKtide as substrate in presence of 33P-ATP by ProQinase assay relative to control
Dual specificity tyrosine-phosphorylation-regulated kinase 1B (Homo sapiens), sequence (Q9Y463 whole entry, looked up): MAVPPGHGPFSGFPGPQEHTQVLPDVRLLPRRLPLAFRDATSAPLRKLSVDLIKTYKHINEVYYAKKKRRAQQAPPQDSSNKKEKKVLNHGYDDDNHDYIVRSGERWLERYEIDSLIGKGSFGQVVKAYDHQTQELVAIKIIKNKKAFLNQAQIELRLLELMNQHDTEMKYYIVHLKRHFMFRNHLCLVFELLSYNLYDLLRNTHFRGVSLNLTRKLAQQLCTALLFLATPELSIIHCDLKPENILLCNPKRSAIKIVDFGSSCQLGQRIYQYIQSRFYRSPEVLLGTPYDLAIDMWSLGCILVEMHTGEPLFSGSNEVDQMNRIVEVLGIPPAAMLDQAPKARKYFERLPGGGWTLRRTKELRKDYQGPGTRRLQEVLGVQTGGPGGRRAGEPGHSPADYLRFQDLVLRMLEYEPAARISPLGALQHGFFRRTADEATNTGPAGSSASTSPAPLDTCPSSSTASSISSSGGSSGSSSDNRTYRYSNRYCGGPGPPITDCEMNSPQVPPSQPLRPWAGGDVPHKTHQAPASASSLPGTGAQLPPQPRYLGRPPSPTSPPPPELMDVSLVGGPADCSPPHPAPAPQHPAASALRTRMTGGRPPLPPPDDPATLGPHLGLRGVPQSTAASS

[9] = target: Interleukin-1 receptor-associated kinase 4 (Homo sapiens) (UniProt Q9NWZ3); experiment: Inhibition of human IRAK4 assessed as residual activity at 1 uM using RB-CTF as substrate in presence of 33P-ATP by ProQinase assay relative to control
Interleukin-1 receptor-associated kinase 4 (Homo sapiens), sequence (Q9NWZ3 whole entry): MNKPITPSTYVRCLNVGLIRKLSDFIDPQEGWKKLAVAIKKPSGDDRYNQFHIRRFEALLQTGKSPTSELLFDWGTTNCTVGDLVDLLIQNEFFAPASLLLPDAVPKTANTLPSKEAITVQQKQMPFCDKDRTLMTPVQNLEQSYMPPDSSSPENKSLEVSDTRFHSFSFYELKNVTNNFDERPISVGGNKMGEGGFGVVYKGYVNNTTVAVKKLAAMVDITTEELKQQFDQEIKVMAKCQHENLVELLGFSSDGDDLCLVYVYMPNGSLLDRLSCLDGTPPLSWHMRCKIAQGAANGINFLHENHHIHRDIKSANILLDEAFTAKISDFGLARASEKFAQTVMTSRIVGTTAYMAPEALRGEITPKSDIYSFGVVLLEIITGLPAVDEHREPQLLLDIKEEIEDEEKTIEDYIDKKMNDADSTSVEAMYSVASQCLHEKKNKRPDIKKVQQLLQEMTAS

[10] = target: T1, Tyrosine-protein kinase ITK/TSK (Homo sapiens) (UniProt Q08881); experiment: Inhibition of human ITK assessed as residual activity at 1 uM using polyEY as substrate in presence of 33P-ATP by ProQinase assay relative to control
T1 sequence (whole entry): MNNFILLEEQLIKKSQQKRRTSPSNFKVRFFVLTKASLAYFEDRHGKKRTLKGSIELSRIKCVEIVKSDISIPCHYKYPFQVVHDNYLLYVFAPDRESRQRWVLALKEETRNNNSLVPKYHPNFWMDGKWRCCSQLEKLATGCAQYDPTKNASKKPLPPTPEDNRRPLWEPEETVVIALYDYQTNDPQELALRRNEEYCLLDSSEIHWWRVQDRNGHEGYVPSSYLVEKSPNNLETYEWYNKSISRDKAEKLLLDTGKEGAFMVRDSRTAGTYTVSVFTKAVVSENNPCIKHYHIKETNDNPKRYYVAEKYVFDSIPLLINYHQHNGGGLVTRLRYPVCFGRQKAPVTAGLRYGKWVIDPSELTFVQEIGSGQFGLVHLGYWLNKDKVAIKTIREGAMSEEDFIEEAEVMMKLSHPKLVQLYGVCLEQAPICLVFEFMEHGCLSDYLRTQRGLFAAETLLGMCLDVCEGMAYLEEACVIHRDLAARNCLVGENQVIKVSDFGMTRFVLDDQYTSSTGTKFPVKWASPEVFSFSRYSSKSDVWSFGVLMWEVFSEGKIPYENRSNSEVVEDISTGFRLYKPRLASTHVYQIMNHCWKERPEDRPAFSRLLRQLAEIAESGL

[11] = target: Ribosomal protein S6 kinase alpha-2 (Homo sapiens) (UniProt Q15349); experiment: Inhibition of human RPS6KA2 assessed as residual activity at 1 uM using bio-4xCHKT as substrate in presence of 33P-ATP by ProQinase assay relative to control
[12] = target: Serine/threonine-protein kinase TAO2 (Homo sapiens) (UniProt Q9UL54); experiment: Inhibition of human TAOK2 assessed as residual activity at 1 uM using casein as substrate in presence of 33P-ATP by ProQinase assay relative to control
[13] = target: Serine/threonine-protein kinase TBK1 (Homo sapiens) (UniProt Q9UHD2); experiment: Inhibition of human TBK1 assessed as residual activity at 1 uM using casein as substrate in presence of 33P-ATP by ProQinase assay relative to control
Serine/threonine-protein kinase TBK1 (Homo sapiens), sequence (Q9UHD2 whole entry): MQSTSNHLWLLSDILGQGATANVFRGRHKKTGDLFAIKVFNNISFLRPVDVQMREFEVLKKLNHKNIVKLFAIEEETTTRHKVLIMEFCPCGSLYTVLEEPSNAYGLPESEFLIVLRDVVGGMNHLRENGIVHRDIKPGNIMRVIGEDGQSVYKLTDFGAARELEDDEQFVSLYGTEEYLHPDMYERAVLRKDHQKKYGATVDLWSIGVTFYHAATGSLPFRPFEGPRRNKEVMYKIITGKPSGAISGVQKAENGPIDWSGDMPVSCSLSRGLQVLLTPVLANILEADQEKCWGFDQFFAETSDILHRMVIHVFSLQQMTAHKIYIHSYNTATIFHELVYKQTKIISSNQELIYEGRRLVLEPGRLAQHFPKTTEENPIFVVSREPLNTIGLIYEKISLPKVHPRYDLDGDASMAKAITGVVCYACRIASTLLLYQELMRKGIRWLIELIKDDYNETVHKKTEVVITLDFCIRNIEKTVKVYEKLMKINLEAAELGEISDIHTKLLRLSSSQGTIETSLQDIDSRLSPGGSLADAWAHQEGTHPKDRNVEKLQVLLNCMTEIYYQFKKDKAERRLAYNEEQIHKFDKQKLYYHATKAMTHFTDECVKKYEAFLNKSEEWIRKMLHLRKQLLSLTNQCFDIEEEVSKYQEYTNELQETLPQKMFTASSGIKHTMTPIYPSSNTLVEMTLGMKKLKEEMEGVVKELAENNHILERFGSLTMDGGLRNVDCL

[14] = target: 3-phosphoinositide-dependent protein kinase 1 (Homo sapiens) (UniProt O15530); experiment: Inhibition of human PDK1 assessed as residual activity at 1 uM using bio-4xCHKT as substrate in presence of 33P-ATP by ProQinase assay relative to control

Cyclin-dependent kinase 8 (Homo sapiens), sequence (P49336 whole entry): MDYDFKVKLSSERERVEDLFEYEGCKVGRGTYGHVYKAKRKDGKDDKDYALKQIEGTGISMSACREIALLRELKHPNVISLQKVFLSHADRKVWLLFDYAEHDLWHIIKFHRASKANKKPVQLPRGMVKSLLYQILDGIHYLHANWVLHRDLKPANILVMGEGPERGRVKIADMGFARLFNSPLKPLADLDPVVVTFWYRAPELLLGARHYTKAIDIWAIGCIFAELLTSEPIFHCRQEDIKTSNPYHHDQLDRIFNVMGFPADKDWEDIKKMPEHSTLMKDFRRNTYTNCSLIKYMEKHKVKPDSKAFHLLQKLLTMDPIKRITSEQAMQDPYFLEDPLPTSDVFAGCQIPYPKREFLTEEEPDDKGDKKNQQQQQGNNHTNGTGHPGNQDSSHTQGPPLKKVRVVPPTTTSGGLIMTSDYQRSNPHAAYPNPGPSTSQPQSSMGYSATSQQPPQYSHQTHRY

Work on `O=C1c2ccc(Nc3ccc(F)cc3F)cc2CCc2ccc(OC[C@H](O)CO)cc21` [Skepinone-L] yielded an Activity [1] of 100%, an Activity [2] of 100% and an Activity [3] of 100%. The Activity [4] was 100%, the Activity [5] was 83% and the Activity [6] was 94%. For the same compound, the Activity [7] was 106%, the Activity [8] was 102% and the Activity [9] was 104%. The Activity [10] was 97%, the Activity [11] was 90% and the Activity [12] was 102%. For the same compound, the Activity [13] was 87% and the Activity [14] was 97%.
